Measurements reported in patent US12599136B2, “Substituted isophthalic acid diamides and their use as herbicides” (Bayer Aktiengesellschaft, priority 2020, dated 2026).

Assays:
Format in all cases: in vivo
[1] = test system: Setaria viridis; test: Post-emergence herbicidal action against SETVI; details: visual assessment about 3 weeks after treatment
In short: (§1)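 Post-emergence greenhouse test; one-leaf stage, 2–3 wk post-sowing, sandy loam. Foliar spray of WP/EC in water, 600–800 l/ha, +0.2% wetting agent. Visual % action at ~3 wk vs untreated (100% = plants dead).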

[2] = test system: Pharbitis purpurea; test: Post-emergence herbicidal action against PHBPU; details: visual assessment about 3 weeks after treatment
In short: as §1

[3] = test system: Setaria viridis; test: Pre-emergence herbicidal action against SETVI; details: 80 g/ha
In short: (§2)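 Herbicidal effect was assessed 3 weeks after treatment by visual comparison with untreated controls, 100% denoting dead plants. Aqueous WP or EC preparations had been applied at 600 to 800 l/ha with 0.2% wetting agent to the soil covering freshly sown seeds.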

[4] = test system: Abutilon theophrasti; test: Pre-emergence herbicidal action against ABUTH; details: visual score after 3 weeks vs untreated controls
In short: as §2

[5] = test system: Digitaria sanguinalis; test: Pre-emergence herbicidal action against DIGSA
In short: as §2

[6] = test system: Amaranthus retroflexus; test: Pre-emergence herbicidal action against AMARE; details: visual score after 3 weeks vs untreated controls
In short: as §2

[7] = test system: Amaranthus retroflexus; test: Post-emergence herbicidal action against AMARE; details: visual assessment about 3 weeks after treatment
In short: as §1

[8] = test system: Echinochloa crus-galli; test: Post-emergence herbicidal action against ECHCG; details: visual assessment about 3 weeks after treatment
In short: as §1

[9] = test system: Matricaria inodora; test: Pre-emergence herbicidal action against MATIN; details: visual score after 3 weeks vs untreated controls
In short: as §2

[10] = test system: Alopecurus myosuroides; test: Pre-emergence herbicidal action against ALOMY; details: 80 g/ha; visual score after 3 weeks vs untreated controls
In short: as §2

[11] = test system: Avena fatua; test: Post-emergence herbicidal action against AVEFA; details: 20 g/ha, visual assessment about 3 weeks after treatment
In short: as §1

[12] = test system: Viola tricolor; test: Pre-emergence herbicidal action against VIOTR
In short: as §2

[13] = test system: Echinochloa crus-galli; test: Pre-emergence herbicidal action against ECHCG; details: 80 g/ha; visual score after 3 weeks vs untreated controls
In short: as §2

[14] = test system: Digitaria sanguinalis; test: Post-emergence herbicidal action against DIGSA
Protocol: Seeds of monocotyledonous and dicotyledonous weed and crop plants are laid out in sandy loam soil in wood-fiber pots, covered with soil and cultivated in a greenhouse under good growth conditions. 2 to 3 weeks after sowing, the test plants are treated at the one-leaf stage. The compounds of the invention, formulated in the form of wettable powders (WP) or as emulsion concentrates (EC), are then sprayed onto the green parts of the plants in the form of an aqueous suspension or emulsion at a water application rate equivalent to 600 to 800 l/ha, with addition of 0.2% wetting agent. After the test plants have been left to stand in the greenhouse under optimal growth conditions for about 3 weeks, the action of the preparations is assessed visually in comparison to untreated controls (herbicidal action in percent (%): 100% activity=the plants have died, 0% activity=like control plants). […] The tables below illustrate, in an illustrative manner, the post-emergence herbicidal action of the compounds of the invention, the herbicidal activity being stated in percent.

[15] = test system: Viola tricolor; test: Post-emergence herbicidal action against VIOTR
In short: as §1

[16] = test system: Veronica persica; test: Pre-emergence herbicidal action against VERPE
In short: as §2

[17] = test system: Alopecurus myosuroides; test: Post-emergence herbicidal action against ALOMY
In short: as §1

[18] = test system: Abutilon theophrasti; test: Post-emergence herbicidal action against ABUTH
In short: as §1

[19] = test system: Avena fatua; test: Pre-emergence herbicidal action against AVEFA; details: 80 g/ha; visual score after 3 weeks vs untreated controls
In short: as §2

[20] = test system: Matricaria inodora; test: Post-emergence herbicidal action against MATIN; details: visual assessment about 3 weeks after treatment
In short: as §1

[21] = test system: Veronica persica; test: Post-emergence herbicidal action against VERPE; details: 20 g/ha, visual assessment about 3 weeks after treatment
In short: as §1

Row | SMILES | Post-emergence action against SETVI in % ([1]; 5 g/ha) | Post-emergence action against SETVI in % ([1]; 20 g/ha) | Pre-emergence action against SETVI [3] | Pre-emergence action against ABUTH ([4]; 80 g/ha) | Pre-emergence action against DIGSA ([5]; 20 g/ha) | Pre-emergence action against DIGSA ([5]; 80 g/ha) | Pre-emergence action against AMARE ([6]; 20 g/ha) | Pre-emergence action against AMARE ([6]; 80 g/ha) | Post-emergence action against AMARE in % ([7]; 5 g/ha) | Post-emergence action against AMARE in % ([7]; 20 g/ha) | Post-emergence action against ECHCG in % ([8]; 20 g/ha) | Pre-emergence action against MATIN ([9]; 80 g/ha) | Pre-emergence action against ALOMY [10] | Pre-emergence action against VIOTR ([12]; 80 g/ha) | Pre-emergence action against ECHCG [13] | Post-emergence action against DIGSA in % ([14]; 5 g/ha) | Post-emergence action against DIGSA in % ([14]; 20 g/ha) | Post-emergence action against VIOTR in % ([15]; 20 g/ha) | Post-emergence action against ALOMY ([17]; 20 g/ha) | Pre-emergence action against VIOTR ([12]; 20 g/ha) | also measured
1 | CCN(CC)C(=O)c1c(C(F)(F)F)ccc(C(=O)Nc2nnnn2C)c1C [Example 1-31] | 90% | 100% | 100% | 100% | 100% | 100% | 100% | 100% | 90% | 90% | 90% | 100% | 100% | 100% | 80% | 80% | 90% | 90% | 90% |  | Post-emergence action against PHBPU in % ([2]; 5 g/ha): 90%; Post-emergence action against PHBPU in % ([2]; 20 g/ha): 90%; Post-emergence action against ECHCG in % ([8]; 5 g/ha): 90%; Post-emergence action against AVEFA in % [11]: 80%; Post-emergence action against VIOTR in % ([15]; 5 g/ha): 80%; Pre-emergence action against VERPE ([16]; 80 g/ha): 90%; Post-emergence action against ALOMY ([17]; 5 g/ha): 80%
2 | CCN(C(=O)c1c(C(F)(F)F)ccc(C(=O)Nc2nnnn2C)c1C)C1CC1 [Example 1-32] | 80% | 90% | 100% | 100% | 90% | 100% | 90% | 100% | 90% | 100% | 100% | 100% | 90% | 100% | 90% | 90% | 90% | 100% | 90% | 80% | Post-emergence action against PHBPU in % ([2]; 5 g/ha): 80%; Post-emergence action against PHBPU in % ([2]; 20 g/ha): 90%; Post-emergence action against ECHCG in % ([8]; 5 g/ha): 100%; Post-emergence action against AVEFA in % [11]: 80%; Post-emergence action against VIOTR in % ([15]; 5 g/ha): 100%; Post-emergence action against ALOMY ([17]; 5 g/ha): 80%
3 | CCN(CC)C(=O)c1c(C(F)(F)F)ccc(C(=O)Nc2nnnn2C)c1Cl [Example 1-135] |  |  | 100% | 100% |  | 100% | 100% | 100% | 80% | 80% | 90% | 100% | 100% | 100% | 90% | 90% | 90% | 90% | 90% | 100% | Post-emergence action against ABUTH ([18]; 5 g/ha): 80%; Post-emergence action against ABUTH ([18]; 20 g/ha): 90%; Pre-emergence action against ABUTH ([4]; 20 g/ha): 100%; Post-emergence action against ECHCG in % ([8]; 5 g/ha): 80%; Pre-emergence action against MATIN ([9]; 20 g/ha): 90%; Post-emergence action against AVEFA in % [11]: 80%; Pre-emergence action against AVEFA [19]: 90%; Post-emergence action against MATIN in % ([20]; 20 g/ha): 80%; Pre-emergence action against VERPE ([16]; 80 g/ha): 90%; Post-emergence action against ALOMY ([17]; 5 g/ha): 80%
4 | CCn1nnnc1NC(=O)c1ccc(C(F)(F)F)c(C(=O)N(C)C)c1C [Example 2-19] | 80% | 80% | 100% | 100% | 100% | 100% |  | 100% | 80% | 90% | 90% | 90% | 90% | 100% | 90% |  | 90% | 100% | 80% | 80% | Post-emergence action against ABUTH ([18]; 20 g/ha): 100%; Pre-emergence action against ABUTH ([4]; 20 g/ha): 80%; Post-emergence action against VERPE in % [21]: 80%; Post-emergence action against MATIN in % ([20]; 20 g/ha): 80%; Post-emergence action against VIOTR in % ([15]; 5 g/ha): 80%; Pre-emergence action against VERPE ([16]; 80 g/ha): 90%
5 | CCn1nnnc1NC(=O)c1ccc(C(F)(F)F)c(C(=O)N(C)C2CC2)c1C [Example 2-21] | 80% | 100% | 100% | 100% | 100% | 100% | 100% | 100% | 100% | 100% | 90% | 100% |  | 100% | 100% | 80% | 90% | 100% | 90% | 100% | Post-emergence action against PHBPU in % ([2]; 20 g/ha): 90%; Post-emergence action against ECHCG in % ([8]; 5 g/ha): 90%; Pre-emergence action against MATIN ([9]; 20 g/ha): 90%; Pre-emergence action against AVEFA [19]: 80%; Post-emergence action against MATIN in % ([20]; 5 g/ha): 80%; Post-emergence action against MATIN in % ([20]; 20 g/ha): 90%; Post-emergence action against VIOTR in % ([15]; 5 g/ha): 100%; Pre-emergence action against VERPE ([16]; 20 g/ha): 80%; Pre-emergence action against VERPE ([16]; 80 g/ha): 100%; Post-emergence action against ALOMY ([17]; 5 g/ha): 80%
6 | CCN(CC)C(=O)c1c(C(F)(F)F)ccc(C(=O)Nc2nnnn2CC)c1Cl [Example 2-135] |  | 80% | 100% | 100% | 80% | 90% | 100% | 100% | 80% | 90% | 80% | 100% | 90% | 100% | 100% | 80% | 90% |  | 90% | 100% | Pre-emergence action against ABUTH ([4]; 20 g/ha): 90%; Pre-emergence action against MATIN ([9]; 20 g/ha): 90%; Post-emergence action against AVEFA in % [11]: 80%; Post-emergence action against MATIN in % ([20]; 20 g/ha): 80%
